Laboratory results as given in patent US12583818B2 (DAEGU-GYEONGBUK MEDICAL INNOVATION FOUNDATION, priority 2020, dated 2026).
Read-outs that look alike come from different tables or passages of the source.

Key:
Pin1 = target: T1, Pin1 (Homo sapiens, UniProt Q13526); experiment: Evaluation of Pin1 enzyme inhibitory activity (Sensolyte Green Pin1 assay kit); type: biochemical
T1 construct: purchased Anaspec
How it was run: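 Compounds were tested at four working concentrations (100, 10, 1, 0.1 μM), mixed with Pin1 (50 μg/ml stock dilution), developer and substrate (1 μM as prepared). Fluorescence at 490/520 nm was recorded after 2 h in the dark at room temperature. Results were grouped into grades A–D by inhibiting concentration.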

[1] = tested on: MDA-MB 231 triple negative breast cancer cell line; experiment: MDA-MB 231 protein expression inhibition (Western blotting, cycline D1 vs Vinculin); type: cell-based; settings: Homo sapiens, compound 10 μM, 72 hours, cycline D1 Western blot, read-out: MBA-MB-231 (amount of the protein compared to the DMSO-treated control group)
Experimental: In order to confirm the ability of the compound represented by formula 1 according to the present invention to inhibit the protein expression of MDA-MB 231 triple negative breast cancer cell line, the following experiment was performed, and the results are shown in Table 3 below.
MDA-MB-231 cells were cultured in a 5% CO2 incubator at 37° C. using RPMI medium supplemented with 10% FBS and 1% penicillin/streptomycin.
The cells were washed with PBS once a day, and then replaced with a new medium. The cells grown at the density of at least 90% 1 day before the experiment were detached using trypsin/EDTA, and then plated at the density of 100,000 per well in a 6-well plate.
On the next day of culture, the compound prepared in each example was treated at a concentration of 10 μM, and DMSO was treated at a concentration of 0.1% of the total as the control, followed by incubation for 72 hours. After 72 hours, the cells were washed twice with PBS, collected by scraping, and centrifuged at 13,000 rpm for 3 minutes to remove all the supernatant and only cells were taken.
RIPA buffer (containing 1× protease inhibitor and phosphatase inhibitor) was added to the prepared cells (80 μl/well), and the plate was shaken once every 5 minutes to disrupt the cells for a total of 15 minutes. The disrupted cells were centrifuged at 13,000 rpm for 15 minutes to collect only the supernatant protein. The obtained protein was quantified using a BCA protein quantification kit (Pierece, MA, USA), and a total of 10 μg of the protein was used for Western blotting.
The protein sample was isolated by 10% SDS-PAGE, and transferred to a PVDF membrane. Anti-human cycline D1 antibody (Cell signal) and anti-Vinculin antibody were bound to the protein sample, and the expression of the protein was measured by using an ECL reagent and LAS4000 equipment. The measurement results were quantified and generalized using ImageJ. The results are shown in Table 3 below by dividing the grades A to D according to the amount of the protein compared to the DMSO-treated control group.

[2] = tested on: A2780-SP cells (ovarian cancer stem cells); experiment: Sphere cell viability of A2780-SP cells (Cell-titer Glo); type: cell-based
Experimental: (§1) In order to confirm the inhibitory effect of the compound represented by formula 1 according to the present invention on the growth of MCF7, MCF7-SP, A2780 or A2780-SP cells, the following experiment was performed, and the results are shown in Tables 4 and 5 below.
On the other hand, A2780-SP cells (ovarian cancer stem cells) were plated in an Ultra-Low Attachment round bottom 96-well plate (corning) at the density of 1,500 viable cells per well, and cultured in cancer stem cell medium. The cancer stem cell medium is composed of the neurobasal medium supplemented with 20 ng/ml of bFGF, 10 ng/ml of EGF, […] of amphotericin B, HEPES, Glutamax and B27.
On the next day of culture, the cells were treated with the compound of Examples 57, and 69 to 144, followed by culture for 8 days. The medium containing the compound was added thereto once again on the 4th day. Sphere cell viability was evaluated by Cell-titer Glo (Promega, WC, USA), and luciferase activity was detected using a Tecan plate reader (Biocompare, USA).

[3] = tested on: A2780 cells (ovarian cancer cells); experiment: Cell viability of A2780 cells (Cell-titer Glo); type: cell-based; settings: Homo sapiens
Experimental: as §1
In addition, A2780 cells (ovarian cancer cells) were plated in a 96-well plate at the density of 3000 viable cells per well, and cultured in RPMI-1640 medium supplemented with 10% FBS and 1% penicillin/streptomycin.
On the next day of culture, the cells were treated with the compound of Examples 57, and 69 to 144, followed by culture for 3 days. Cell viability was evaluated by Cell-titer Glo (Promega, WC, USA), and luciferase activity was detected using a Tecan plate reader (Biocompare, USA).

[4] = concentration at which the Pin1 enzyme activity is inhibited, 2 hours at room temperature, fluorescence 490 nm/520 nm, read-out: Pin 1 inhibition
[5] = Table 2, read-out: concentration at which Pin1 inhibitory activity was exhibited
[6] = 192 h, sphere cell viability, culture for 8 days, read-out: A2780-SP
[7] = Table 5, read-out: the concentration (second list of b710, cell line not named; matches A2780-SP column)
[8] = 72 h, cell viability, culture for 3 days, read-out: A2780
[9] = A2780, Table 5, read-out: A2780 cell concentration

T1 sequence (Q13526 whole entry): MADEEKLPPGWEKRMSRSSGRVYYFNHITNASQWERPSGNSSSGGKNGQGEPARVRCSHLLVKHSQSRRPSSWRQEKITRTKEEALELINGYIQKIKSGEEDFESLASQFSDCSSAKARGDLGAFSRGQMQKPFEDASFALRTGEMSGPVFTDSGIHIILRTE

Row | SMILES | IC50 (Pin1; [4]) | IC50 (Pin1; [5]) | IC50 [2, 6] | IC50 [2, 7] | IC50 [3, 8] | IC50 [3, 9] | activity at 10 µM [1]
1 | CN1CCN(CCCOc2ccc(S(=O)(=O)NCCCc3c[nH]c4ccccc34)cc2)CC1 [Example 31, N-(3-(1H-indol-3-yl)propyl)-4-(3-(4-methylpiperazin-1-yl)propoxy)benzenesulfonamide] | 1000 to 10000 nM |  |  |  |  |  | 50 to 70%
2 | CN1CCN(CCCOc2ccc(S(=O)(=O)N3CCC(c4c[nH]c5ccccc45)CC3)cc2)CC1 [Example 57, 3-(1-((4-(3-(4-methylpiperazin-1-yl)propoxy)phenyl)sulfonyl)piperidin-4-yl)-1H-indole] | 10000 to 100000 nM |  |  |  |  |  | 70 to 100%
3 | CN(C)CCCOc1ccc(S(=O)(=O)NCCCc2c[nH]c3ccccc23)cc1 [Example 22, N-(3-(1H-indol-3-yl)propyl)-4-(3-(dimethylamino)propoxy)benzenesulfonamide] | 10000 to 100000 nM |  |  |  |  |  | 70 to 100%
4 | CN1CCN(c2cc(F)cc(Oc3ccc(S(=O)(=O)NCCCc4c[nH]c5ccc(Cl)cc45)cc3)c2)CC1 [Example 137, N-(3-(5-chloro-1H-indol-3-yl)propyl)-4-(3-fluoro-5-(4-methylpiperazin-1-yl)phenoxy)benzenesulfonamide] | < 1000 nM | < 1000 nM | 1000 to 10000 nM |  | > 10000 nM |  | 
5 | CN1CCN(c2ccnc(Nc3ccc(S(=O)(=O)NCCCc4c[nH]c5ccc(Cl)cc45)cc3)c2)CC1 [Example 133, N-(3-(5-chloro-1H-indol-3-yl)propyl)-4-((4-(4-methylpiperazin-1-yl)pyridin-2-yl)amino)benzenesulfonamide] | < 1000 nM | < 1000 nM | 1000 to 10000 nM |  | > 10000 nM |  | 
6 | CN1CCN(c2cc(Br)cc(Oc3ccc(S(=O)(=O)NCCCc4c[nH]c5ccc(Cl)cc45)cc3)c2)CC1 [Example 138, N-(3-(5-chloro-1H-indole-3-yl)propyl)-4-(3-bromo-5-(4-methylpiperazine-1-yl)phenoxy)benzenesulfonamide] | < 1000 nM | < 1000 nM | 1000 to 10000 nM |  | > 10000 nM |  | 
7 | O=S(=O)(NCC1CCc2[nH]c3ccccc3c2C1)c1ccc(OCCCN2CCNCC2)cc1 (stereo not shown) [Example 190, 4-(3-(piperazin-1-yl)propoxy)-N-((2,3,4,9-tetrahydro-1H-carbazol-3-yl)methyl)benzenesulfonamide] | < 1000 nM | < 1000 nM | < 1000 nM | < 1000 nM | > 10000 nM |  | 
8 | CN1CCN(CCCOc2ccc(S(=O)(=O)NCCCc3c[nH]c4c(Cl)cc(Cl)cc34)cc2)CC1 [Example 165, N-(3-(5,7-dichloro-1H-indol-3-yl)propyl)-4-(3-(4-methylpiperazin-1-yl)propoxy)benzenesulfonamide] | < 1000 nM | < 1000 nM | < 1000 nM | < 1000 nM | 1000 to 10000 nM | < 10000 nM | 
9 | CN1CCN(CCCOc2ccc(S(=O)(=O)NCCCc3n[nH]c4ccc(Cl)cc34)cc2)CC1 [Example 167, N-(3-(5-chloro-1H-indazole-3-yl)propyl)-4-(3-(4-methylpiperazine-1-yl)propoxy)benzenesulfonamide] | < 1000 nM | < 1000 nM | < 1000 nM | < 1000 nM | 1000 to 10000 nM | < 10000 nM | 
10 | CN1CCN(C[C@H](O)COc2ccc(S(=O)(=O)NCCCc3c[nH]c4ccc(Cl)cc34)cc2)CC1 [Example 173, (S)—N-(3-(5-chloro-1H-indol-3-yl)propyl)-4-(2-hydroxy-3-(4-methylpiperazin-1-yl)propoxy)benzenesulfonamide] | < 1000 nM | < 1000 nM | < 1000 nM | < 1000 nM | 1000 to 10000 nM | < 10000 nM | 
11 | O=S(=O)(NCCCc1c[nH]c2ccc(Cl)cc12)c1ccc(OC[C@@H](O)CN2CCNCC2)cc1 [Example 174, (S)—N-(3-(5-chloro-1H-indol-3-yl)propyl)-4-(2-hydroxy-3-(piperazin-1-yl)propoxy)benzenesulfonamide] | < 1000 nM | < 1000 nM | < 1000 nM | < 1000 nM | > 10000 nM |  | 

Further lines, with some results ahead:

Row | IC50 (Pin1; [4]) | IC50 (Pin1; [5]) | IC50 [2, 6] | IC50 [2, 7] | IC50 [3, 8] | IC50 [3, 9] | SMILES | activity at 10 µM [1]
12 | 1000 to 10000 nM |  |  |  |  |  | O=S(=O)(NCCCc1c[nH]c2ccc(Cl)cc12)c1ccc(OCCCN2CCC(F)(F)CC2)cc1 [Example 82, N-(3-(5-chloro-1H-indol-3-yl)propyl)-4-(3-(4,4-difluoropiperidin-1-yl)propoxy)benzenesulfonamide] | 70 to 100%
13 | 1000 to 10000 nM |  |  |  |  |  | O=S(=O)(NCCCc1c[nH]c2ccc(Cl)cc12)c1ccc(OCCCN2CCC(Cl)CC2)cc1 [Example 78, N-(3-(5-chloro-1H-indol-3-yl)propyl)-4-(3-(4-chloropiperidin-1-yl)propoxy)benzenesulfonamide] | 0 to 35%
14 | 1000 to 10000 nM |  |  |  |  |  | O=S(=O)(NCCCc1c[nH]c2ccc(Cl)cc12)c1ccc(OCCCN2CCC(C(F)(F)F)CC2)cc1 [Example 81, N-(3-(5-chloro-1H-indol-3-yl)propyl)-4-(3-(4-(trifluoromethyl)piperidin-1-yl)propoxy)benzenesulfonamide] | 0 to 35%
15 | < 1000 nM | < 1000 nM | < 1000 nM | < 1000 nM | 1000 to 10000 nM | < 10000 nM | Cc1ncn(CCCOc2ccc(S(=O)(=O)NCCCc3c[nH]c4ccc(Cl)cc34)cc2)c1C [Example 175, N-(3-(5-chloro-1H-indol-3-yl)propyl)-4-(3-(4,5-dimethyl-1H-imidazol-1-yl)propoxy)benzenesulfonamide] | 
16 | 1000 to 10000 nM |  | < 1000 nM | < 1000 nM | > 10000 nM |  | C[C@@H]1CN(CCCOc2ccc(S(=O)(=O)NCCCc3c[nH]c4ccc(Cl)cc34)cc2)C[C@H](C)N1 [Example 110, N-(3-(5-chloro-1H-indol-3-yl)propyl)-4-(3-((3S,5R)-3,5-dimethylpiperazin-1-yl)propoxy)benzenesulfonamide] | 
17 | < 1000 nM | < 1000 nM | < 1000 nM | < 1000 nM | 1000 to 10000 nM | < 10000 nM | C[C@H]1CN(CCCOc2ccc(S(=O)(=O)NCCCc3c[nH]c4ccc(Cl)cc34)cc2)CCN1 [Example 109, (S)—N-(3-(5-chloro-1H-indol-3-yl)propyl)-4-(3-(3-methylpiperazin-1-yl)propoxy)benzenesulfonamide] | 
18 | < 1000 nM | < 1000 nM | < 1000 nM | < 1000 nM | 1000 to 10000 nM | < 10000 nM | CN1CCN(CCCOc2ccc(S(=O)(=O)NCCCc3c[nH]c4ccc(Br)cc34)cc2)CC1 [Example 154, N-(3-(5-bromo-1H-indol-3-yl)propyl)-4-(3-(4-methylpiperazin-1-yl)propoxy)benzenesulfonamide] | 
19 | < 1000 nM | < 1000 nM | < 1000 nM | < 1000 nM | > 10000 nM |  | O=S(=O)(NCCc1c[nH]c2ccc(Cl)cc12)c1ccc(OCCCN2CCNCC2)cc1 [Example 159, N-(2-(5-chloro-1H-indol-3-yl)ethyl)-4-(3-(piperazin-1-yl)propoxy)benzenesulfonamide] | 
